{"source": "patent US6159735A", "about": "“Calcitonin/calcitonin gene related peptide enhancer element and associated DNA binding proteins” (University of Iowa Research Foundation, priority 1995, dated 2000)", "key": {"[1]": {"test_system": "cytomegalovirus promoter / thymidine kinase promoter", "test": "Control reporter genes CMV-luc and TK-luc in CA77 and 44-2C cells", "format": "cell-based, rat", "details": "1 μM retinoic acid"}, "[2]": {"test_system": "calcitonin and CGRP mRNA", "details": "CA77 cells, retinoic acid treatment, literature; cited from earlier work"}, "[3]": {"test_system": "H/OB, OB2, HB1 and Oct-1 complexes on CT/CGRP enhancer", "test": "Electrophoretic mobility shift assay of CT/CGRP enhancer complexes in CA77 nuclear extracts", "format": "biochemical, rat", "details": "nuclear extracts from CA77 cells treated 24 hours with retinoic acid", "experimental": "To perform electrophoretic mobility shift assays, nuclei were harvested from approximately 10^8 cells using a previously described miniextract preparation protocol, with one modification (Lee, K. A. W., and Green, M. R. (1990) Methods Enzymol. 181, 20-25). Instead of dialyzing the extract to remove excess NaCl, the extract was diluted 1:1 with extract buffer lacking NaCl. Aliquots of the diluted extract were stored at -70° C. Annealed oligonucleotide duplexes (10 pmol) containing recessed 3' termini were labeled for use as probes by incorporation of [^32 P]dATP (25 μCi, 3000 Ci/mmol) using Klenow DNA polymerase. Both strands of blunt-ended oligonucleotides (10 pmol) were labeled separately using T4 polynucleotide kinase and [γ-^32 P]ATP (20 μCi, 3000 Ci/mmol), then annealed. Unlabeled oligonucleotides used for competition assays were annealed and then treated with Klenow DNA polymerase if the ends were not already blunt. All probes and competitor DNAs were purified over Sephadex G50 columns.\nThe binding reaction (20 μl) contained approximately 3 μg (1-2 μl) of nuclear extract, 0.02 pmol of ^32 P-labeled DNA probe (50,000-100,000 cpm), 10 mM Tris-HCl, pH 7.5, 5% glycerol, 50 mM NaCl, 1 mM EDTA, and 1 mM dithiothreitol. Also, 0.1 μg of poly [d(I-C)] […] Unlabeled competitors were preincubated with nuclear extracts 10 minutes on ice prior to addition of probe. […]"}, "[4]": {"test_system": "CT/CGRP enhancer", "test": "CT/CGRP promoter/enhancer reporter gene (luciferase/CAT) transfection assay in 44-2C cells", "text": "(§1) The 44-2C rat medullary thyroid carcinoma cell line was maintained in DMEM (high glucose) with 1% equine serum (HyClone Laboratories, Logan, Utah) and 0.1% L-glutamine; CA77 rat medullary thyroid carcinoma cells in Ham's F-12 medium/DMEM (low glucose)(1:1) with 10% fetal bovine serum (HyClone Laboratories); HeLa human epithelial derived cells in Ham's F-12 medium with 10% fetal bovine serum; and Rat1 fibroblast cells in DMEM (high glucose) with 10% calf serum. Also, 100 units/ml penicillin and 100 μg/ml streptomycin (GIBCO) were added to each culture medium.\n(§2) Transfections were carried out by growing cells to approximately 80% confluency, harvesting them by brief trypsin/EDTA treatment, and resuspending them in Ca^2+ /Mg^2+ -free PBS.\nIn the retinoic acid experiments, the cells were treated essentially as above except that an apparently critical parameter for retinoic acid inhibition was that the CA77 cells could not be aggregated into clumps. To be consistent, all cell types were subcultured by trypsin treatment 1 day prior to the experiment, except for the 44-2C cells, which often required 2 days to firmly attach. About 4-5×10^6 cells in 0.8 ml were transfected with supercoiled DNA by electroporation using a Biorad Gene Pulser apparatus at 200 volts for the CA77 cells, 220 volts for the HeLa cells, and 260 volts for the 44-2C cells, all with a capacitance of 960 microfarads. The same amount of DNA (20 μg) was used per cuvette unless otherwise indicated. For the α-RXR cotransfection assays, 10 μg 18 bp CT/CGRP-TK-luc plasmid, 18 μg RSV-α-RAR plasmid, or 2 μg β-actin-RXR plasmid (brought to 30 μg total DNA with CMV-β-gal plasmid) were transfected into the cells (constructs described in Glass, C. K., S. M. Lipkin, O. V. Devary, and M. G. Rosenfeld (1989) Cell 59, 697-708; Glass, C. K., O. V. Devary, and M. G. Rosenfeld (1990) Cell 63, 729-738). The transfected cells from a single cuvette were then split between two 60 mm dishes and treated with 1 mM retinoic acid (Sigma) or the vehicle (0.01% ethanol). About 50 to 80% cell survival of the electroporation procedure was observed, except the 44-2C cells, in which approximately 25% of the cells were recovered. The cells were harvested 18-25 hours after transfection. Activities are reported per 50 μg protein unless otherwise noted.\nActivity of the reporter genes and control constructs was measured by luciferase, CAT, or β-Galactosidase assays."}, "[5]": {"test_system": "CT/CGRP enhancer", "test": "CT/CGRP promoter/enhancer luciferase reporter transfection assay in HeLa cells", "format": "cell-based, human"}, "[6]": {"molecular_target": "nuclear retinoic acid receptor (RAR)", "details": "literature; read-out: nuclear retinoic acid receptor (RAR) binding affinity Kd; cited from earlier work"}, "[7]": {"test_system": "retinoic acid responsive element from the β-retinoic acid receptor gene (RARE-TK-luc)", "test": "cells", "details": "Rattus norvegicus", "experimental": "In the retinoic acid experiments, the cells were treated essentially as above except that an apparently critical parameter for retinoic acid inhibition was that the CA77 cells could not be aggregated into clumps. […] About 4-5×10^6 cells in 0.8 ml were transfected with supercoiled DNA by electroporation using a Biorad Gene Pulser apparatus at 200 volts for the CA77 cells, 220 volts for the HeLa cells, and 260 volts for the 44-2C cells, all with a capacitance of 960 microfarads. The same amount of DNA (20 μg) was used per cuvette unless otherwise indicated. For the α-RXR cotransfection assays, 10 μg 18 bp CT/CGRP-TK-luc plasmid, 18 μg RSV-α-RAR plasmid, or 2 μg β-actin-RXR plasmid (brought to 30 μg total DNA with CMV-β-gal plasmid) were transfected into the cells (constructs described in Glass, C. K., S. M. Lipkin, O. V. Devary, and M. G. Rosenfeld (1989) Cell 59, 697-708; Glass, C. K., O. V. Devary, and M. G. Rosenfeld (1990) Cell 63, 729-738). The transfected cells from a single cuvette were then split between two 60 mm dishes and treated with 1 mM retinoic acid (Sigma) or the vehicle (0.01% ethanol). […] The cells were harvested 18-25 hours after transfection. Activities are reported per 50 μg protein unless otherwise noted.\nActivity of the reporter genes and control constructs was measured by luciferase, CAT, or β-Galactosidase assays. To carry out the luciferase assays, cells were washed twice in PBS, harvested by scraping into PBS and then lysed in 100 μl of Triton lysis buffer (1% Triton X-100, 25 mM glycylclycine, pH 7.8, 15 mM MgSO4, 1 mM dithiothreitol). After centrifugation, 20-50 μl of supernatant cell extract was assayed for luciferase activity as previously described (Braiser, A. R., Tate, J. E., and Habener, J. F. (1989) Biotechniques 7, 1116-1122) using a luminometer (Analytical Luminescence Laboratory Monolight 2001). The assay was linear between 100 (background) and at least 800,000 light units."}, "[8]": {"test_system": "CT/CGRP enhancer", "test": "CT/CGRP promoter/enhancer luciferase reporter transfection assay in CA77 cells", "format": "cell-based, rat"}, "[9]": {"test_system": "CT/CGRP enhancer", "test": "CT/CGRP promoter/enhancer luciferase reporter transfection assay in Rat1 fibroblast cells", "format": "cell-based, rat", "text": "Reporter fusion genes were constructed for experiments to localize cis-active elements responsible for glucocorticoid repression of the CT/CGRP gene.\nas §1, §2\nActivity of the reporter genes and control constructs was measured by luciferase, CAT, or β-Galactosidase assays. […] After centrifugation, 20-50 μl of supernatant cell extract was assayed for luciferase activity as previously described (Braiser, A. R., Tate, J. E., and Habener, J. F. (1989) Biotechniques 7, 1116-1122) using a luminometer (Analytical Luminescence Laboratory Monolight 2001). […]"}}, "note": "Read-outs that look alike come from different tables or passages of the source.", "data": [{"smiles": "CC1=C(/C=C/C(C)=C/C=C/C(C)=C/C(=O)O)C(C)(C)CCC1", "note": "[retinoic acid]", "values": [{"measurement": "effect on TK-luc activity", "setting": "[1]; 44-2C cells", "result": "no effect"}, {"measurement": "effect on CMV-luc and TK-luc", "setting": "[1]; CA77 cells", "result": "not significantly affected"}, {"measurement": "decrease in calcitonin and CGRP mRNA levels", "setting": "[2]", "result": "2-3 fold"}, {"measurement": "change in OB2, HB1, or Oct-1 complexes", "setting": "[3]", "result": "no significant change"}, {"measurement": "decrease in H/OB complex (densitometric scans)", "setting": "[3]", "result": "~2", "unit": "fold"}, {"measurement": "repression of 1125-920-TK-luc activity", "setting": "[4]; 44-2C cells, 1 μM retinoic acid", "result": 2, "unit": "fold"}, {"measurement": "effect on 1125-920-TK-luc activity", "setting": "[5]; HeLa cells, 1 μM retinoic acid, also with α-RAR/α-RXR cotransfection", "result": "no effect"}, {"measurement": "Kd", "setting": "[6]", "result": 0.2, "unit": "nM"}, {"measurement": "fold induction at 1 µM", "setting": "[7]; read-out: increase in RARE-TK-luc activity, 44-2C cells, 1 μM retinoic acid", "result": 35}, {"measurement": "fold induction at 1 µM", "setting": "[7]; read-out: increase in RARE-TK-luc activity, CA77 cells, 1 μM retinoic acid, no cotransfected receptor", "result": 5}, {"measurement": "fold induction at 1 µM", "setting": "[7]; read-out: retinoic acid dependent stimulation of RARE-TK-luc activity with cotransfected α-RAR, CA77 cells, 1 μM retinoic acid, α-RAR expression vector", "result": 15}, {"measurement": "retinoic acid dependent repression with 75 bp and 18 bp fragments (TK-luc)", "setting": "[8]", "result": "comparable to the full 205 bp region"}, {"measurement": "retinoic acid dependent repression with 1039-1125-TK-luc and 920-1038-TK-luc", "setting": "[8]", "result": "Neither 1039-1125-TK-luc nor 920-1038-TK-luc exhibited retinoic acid dependent repression"}, {"measurement": "retinoic acid repression with HLH or Oct mutant constructs", "setting": "[8]", "result": "neither the HLH or Oct mutant constructs conferred retinoic acid repression"}, {"measurement": "maximal repression of 1125 CAL-luc, decrease of control activity", "setting": "[8]; 100 nM retinoic acid", "result": 3, "unit": "fold"}, {"measurement": "repression of promoter fragments containing 920 bp or less", "setting": "[8]; 1 μM retinoic acid", "result": "not repressed"}, {"measurement": "decrease in promoter activity of luciferase fusion genes containing 1125 bp or more 5' flanking sequences", "setting": "[8]; 1 μM retinoic acid, 24 hours", "result": "2-3 fold"}, {"measurement": "repression in CAL1125-luc activity without cotransfected receptor", "setting": "[8]; 1 μM retinoic acid, parallel cultures", "result": 2, "unit": "fold"}, {"measurement": "retinoic acid dependent repression in CAL1125-luc activity with cotransfected α-RAR", "setting": "[8]; 1 μM retinoic acid, α-RAR expression vector", "result": 5, "unit": "fold"}, {"measurement": "IC50", "setting": "[8]; Rattus norvegicus, read-out: amount required for half-maximal repression of 1125 CAL-luc", "result": "~0.2", "unit": "nM"}]}, {"smiles": "C[C@@H]1C[C@H]2[C@@H]3CCC4=CC(=O)C=C[C@]4(C)[C@@]3(F)[C@@H](O)C[C@]2(C)[C@@]1(O)C(=O)CO", "note": "[dexamethasone]", "values": [{"measurement": "repression of -920-1125 TK-LUC fusion gene expression", "setting": "[4]; 44-2C cells, 500 nM dexamethasone", "result": "2.5-3 fold"}, {"measurement": "repression of promoter activity of fusion genes containing at least 1125 bp of upstream sequences", "setting": "[4]; 44-2C cells, 500 nM dexamethasone, 24 h", "result": "2.5-4.5 fold"}, {"measurement": "repression of -920-1125 TK-LUC fusion gene expression, in a few experiments", "setting": "[4]; 44-2C cells, 500 nM dexamethasone, a few experiments", "result": "≤ 10", "unit": "fold"}, {"measurement": "effect on gene activity from the shorter constructs", "setting": "[4]; 44-2C cells, 500 nM dexamethasone, constructs lacking -920-1125 region", "result": "slightly stimulated"}, {"measurement": "repression with -1091-1017 and -1043-1025 elements (TK-LUC)", "setting": "[4]; 44-2C cells, dexamethasone", "result": 24, "unit": "fold"}, {"measurement": "repression of -920-1125-TK-LUC promoter activity in dose response", "setting": "[4]; 44-2C cells, dexamethasone concentrations above 50 nM, 24 h", "result": "approximately 10 fold"}, {"measurement": "IC50", "setting": "[4]; Rattus norvegicus, 24 h, read-out: dexamethasone concentration for half-maximal inhibition of -920-1125-TK-LUC", "result": 2.5, "unit": "nM"}, {"measurement": "repression of activity of the -920-1125 enhancer", "setting": "[9]", "result": "did not repress"}, {"measurement": "repression of activity of the -920-1125 enhancer", "setting": "[5]; HeLa cells", "result": "did not repress"}, {"measurement": "stimulation of reporter activity of all plasmids including TK-LUC", "setting": "[5]; non-neuroendocrine cells", "result": "1.5-2 fold"}, {"measurement": "repression of calcitonin/CGRP promoter fusion genes containing the -920-1125-bp element", "setting": "[8]; dexamethasone treatment", "result": "did not repress"}, {"measurement": "repression with smaller elements that include the 18-bp region (TK-LUC)", "setting": "[8]; p<0.01", "result": 1.6, "unit": "fold"}, {"measurement": "repression of activity of the -920-1125-bp region (TK-LUC)", "setting": "[8]; p<0.05", "result": 1.2, "unit": "fold"}]}, {"smiles": "CC1=C(/C=C/C(C)=C/C=C/C(C)=C/C=O)C(C)(C)CCC1", "note": "[Retinal, retinal]", "values": [{"measurement": "minimal effective concentration", "setting": "[8]; Rattus norvegicus, 1125 CAL-luc, read-out: concentrations at which CT/CGRP promoter activity was repressed", "result": "≥ 0.1", "unit": "µM"}, {"measurement": "IC50", "setting": "[8]; Rattus norvegicus, 1125 CAL-luc, read-out: half-maximal repression of CT/CGRP promoter activity", "result": 300, "unit": "nM"}]}]}
